target: T1, Prostaglandin D2 receptor 2 (Homo sapiens, UniProt Q9Y5Y4); assay: Radioligand Binding Assay; conditions: not given
T1 sequence (Q9Y5Y4 whole entry): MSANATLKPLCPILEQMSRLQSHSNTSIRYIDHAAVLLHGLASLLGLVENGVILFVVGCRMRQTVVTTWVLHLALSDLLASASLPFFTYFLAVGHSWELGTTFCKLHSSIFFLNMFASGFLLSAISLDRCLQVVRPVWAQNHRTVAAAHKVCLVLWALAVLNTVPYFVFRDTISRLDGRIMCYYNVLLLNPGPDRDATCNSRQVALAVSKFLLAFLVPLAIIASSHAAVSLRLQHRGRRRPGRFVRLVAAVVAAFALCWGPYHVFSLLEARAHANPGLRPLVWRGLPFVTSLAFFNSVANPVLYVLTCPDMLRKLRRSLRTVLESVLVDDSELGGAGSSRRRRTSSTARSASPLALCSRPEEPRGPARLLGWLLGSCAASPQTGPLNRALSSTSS

| Compound | EC50 |
| --- | --- |
| O=C(O)CN1C(=O)C2(CC(=O)N(Cc3cc(Cl)ccc3F)C2=O)c2cc(Cl)ccc21 (configuration not stated) [2-{5-chloro-1'-[(5-chloro-2-fluorophenyl)methyl]-1,2-dihydrospiro[indole-3,3'-pyrrolidine]-2,2',5'-trione}acetic acid] | 48 nM |
| O=C(O)CN1C(=O)C2(CC(=O)N(Cc3cc(Cl)cc(Cl)c3)C2=O)c2cc(Cl)ccc21 (configuration not stated) [2-{5-chloro-1'-[(3,5-dichlorophenyl)methyl]-1,2-dihydrospiro[indole-3,3'-pyrrolidine]-2,2',5'-trione}acetic acid] | 82 nM |
| O=C(O)CN1C(=O)[C@@]2(CC(=O)N(Cc3cc(Cl)ccc3F)C2=O)c2cc(Cl)ccc21 [2-[(3R)-5-chloro-1'-[(5-chloro-2-fluorophenyl)methyl]-1,2-dihydrospiro[indole-3,3'-pyrrolidine]-2,2',5'-trione]acetic acid] | 66 nM |
| Cc1noc(-c2ccccc2)c1CN1C(=O)CC2(C1=O)C(=O)N(CC(=O)O)c1ccc(Cl)cc12 (configuration not stated) [2-{5-chloro-1'-[(3-methyl-5-phenyl-1,2-oxazol-4-yl)methyl]-1,2-dihydrospiro[indole-3,3'-pyrrolidine]-2,2',5'-trione}acetic acid] | 23 nM |
| O=C(O)CN1C(=O)C2(CC(=O)N(Cc3csc(-c4cccc(Cl)c4)n3)C2=O)c2cc(Cl)ccc21 (configuration not stated) [2-(5-chloro-1'-{[2-(3-chlorophenyl)-1,3-thiazol-4-yl]methyl}-1,2-dihydrospiro[indole-3,3'-pyrrolidine]-2,2',5'-trione)acetic acid] | 48 nM |
| Cc1noc(C)c1CN1C(=O)CC2(C1=O)C(=O)N(CC(=O)O)c1ccc(Cl)cc12 (configuration not stated) [2-{5-chloro-1'-[(3,5-dimethyl-1,2-oxazol-4-yl)methyl]-1,2-dihydrospiro[indole-3,3'-pyrrolidine]-2,2',5'-trione}acetic acid] | 220 nM |
| Cc1noc(-c2ccccc2)c1CN1CC2(CC1=O)C(=O)N(CC(=O)O)c1ccc(Cl)cc12 (configuration not stated) [2-{5-chloro-1'-[(3-methyl-5-phenyl-1,2-oxazol-4-yl)methyl]-1,2-dihydrospiro[indole-3,3'-pyrrolidine]-2,5'-dione}acetic acid] | 19 nM |
| Cc1nc(CN2C(=O)CC3(C2=O)C(=O)N(CC(=O)O)c2ccc(Cl)cc23)cs1 (configuration not stated) [2-{5-chloro-1'-[(2-methyl-1,3-thiazol-4-yl)methyl]-1,2-dihydrospiro[indole-3,3'-pyrrolidine]-2,2',5'-trione}acetic acid] | 236 nM |
| Cc1onc(-c2ccccc2)c1CN1C(=O)CC2(C1=O)C(=O)N(CC(=O)O)c1ccc(Cl)cc12 (configuration not stated) [2-{5-chloro-1'-[(5-methyl-3-phenyl-1,2-oxazol-4-yl)methyl]-1,2-dihydrospiro[indole-3,3'-pyrrolidine]-2,2',5'-trione}acetic acid] | 21 nM |
| O=C(O)CN1C(=O)[C@@]2(CC(=O)N(Cc3cccc(Cl)c3)C2=O)c2cc(Cl)ccc21 [2-[(3R)-5-chloro-1'-[(3-chlorophenyl)methyl]-1,2-dihydrospiro[indole-3,3'-pyrrolidine]-2,2',5'-trione]acetic acid] | 107 nM |

target: T1, Prostaglandin D2 receptor 2; assay: Radioligand Binding Assay and [35S] GTP-gamma-S Binding Assay; conditions: not given
Procedure: (§1) A scintillation proximity assay was used for radioligand competition and saturation binding assays. Nonspecific binding was determined in the presence of 1 uM PGD2. Binding activity was determined by using a 1450 Microbeta scintillation counter (Wallac, UK). Ki values were calculated by using the Cheng-Prusoff equation, and represent the average of at least three independent dose-response experiments. EC50/IC50 values were obtained from GTP-gamma-S binding assay, which measures antagonist activity of compounds in the presence of 80 nM PGD2.

| Compound | Ki |
| --- | --- |
| O=C(O)CN1C(=O)[C@@]2(CC(=O)N(Cc3cc(Cl)ccc3F)C2)c2cc(Cl)ccc21 [2-[(3S)-5-chloro-1'-[(5-chloro-2-fluorophenyl)methyl]-1,2-dihydrospiro[indole-3,3'-pyrrolidine]-2,5'-dione]acetic acid] | 13 nM |
| O=C(O)CN1C(=O)[C@]2(CC(=O)N(Cc3cc(Cl)ccc3F)C2)c2cc(Cl)ccc21 [2-[(3R)-5-chloro-1'-[(5-chloro-2-fluorophenyl)methyl]-1,2-dihydrospiro[indole-3,3'-pyrrolidine]-2,5'-dione]acetic acid] | 683 nM |

same assay, conditions: pH 7.4; 22 °C

| Compound | IC50 |
| --- | --- |
| O=C(O)CN1C(=O)C2(CC(=O)N(Cc3ccccc3F)C2=O)c2cc(Cl)ccc21 (configuration not stated) [2-{5-chloro-1'-[(2-fluorophenyl)methyl]-1,2-dihydrospiro[indole-3,3'-pyrrolidine]-2,2',5'-trione}acetic acid] | 212 nM |
| O=C(O)CN1C(=O)C2(CC(=O)N(Cc3cccc(Cl)c3)C2=O)c2cc(Cl)ccc21 (configuration not stated) [2-{5-chloro-1'-[(3-chlorophenyl)methyl]-1,2-dihydrospiro[indole-3,3'-pyrrolidine]-2,2',5'-trione}acetic acid] | 122 nM |
| O=C(O)CN1C(=O)C2(CC(=O)N(Cc3ccccc3)C2=O)c2cc(Cl)ccc21 (configuration not stated) [2-{1'-benzyl-5-chloro-1,2-dihydrospiro[indole-3,3'-pyrrolidine]-2,2',5'-trione}acetic acid] | 418 nM |
| O=C(O)CN1C(=O)C2(CC(=O)N(Cc3ccc(F)cc3)C2=O)c2cc(Cl)ccc21 (configuration not stated) [2-{5-chloro-1'-[(4-fluorophenyl)methyl]-1,2-dihydrospiro[indole-3,3'-pyrrolidine]-2,2',5'-trione}acetic acid] | 182 nM |

target: T2, Prostaglandin D2 receptor 2 (Mus musculus, UniProt Q9Z2J6); assay: as above; conditions: not given
T2 sequence (Q9Z2J6 whole entry): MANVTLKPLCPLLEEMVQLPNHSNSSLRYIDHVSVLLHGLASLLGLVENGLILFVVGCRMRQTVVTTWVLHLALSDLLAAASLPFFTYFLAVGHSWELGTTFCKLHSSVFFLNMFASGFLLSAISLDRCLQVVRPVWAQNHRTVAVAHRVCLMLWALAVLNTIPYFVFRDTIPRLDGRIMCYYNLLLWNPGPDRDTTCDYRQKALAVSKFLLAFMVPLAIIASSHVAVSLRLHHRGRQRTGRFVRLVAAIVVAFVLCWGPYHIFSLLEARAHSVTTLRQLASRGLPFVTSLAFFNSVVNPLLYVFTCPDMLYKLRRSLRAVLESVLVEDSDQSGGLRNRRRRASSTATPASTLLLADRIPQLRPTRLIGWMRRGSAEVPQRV
Procedure: as §1

| Compound | Ki |
| --- | --- |
| O=C(O)CN1C(=O)[C@@]2(CC(=O)N(Cc3cc(Cl)ccc3F)C2)c2cc(Cl)ccc21 [2-[(3S)-5-chloro-1'-[(5-chloro-2-fluorophenyl)methyl]-1,2-dihydrospiro[indole-3,3'-pyrrolidine]-2,5'-dione]acetic acid] | 88 nM |

Source: BindingDB's records for doi:10.1021/jm701383e (Merck Serono, 2008)
